Reference: patent publication US6962713B2, “Spot-on formulations for combating parasites” (Merial, priority 1919, dated 2005)
Values joined by “and” are separate entries in the source; they are usually repeats but may differ in a detail not shown here. Identical values can stand only once. Marks after values point to notes of the source that are not given here.

Tests used:
[1] = Plasma kinetics of ivermectin after spot-on application at different doses in combination with fipronil to dogs; format: in vivo, dog; settings: for Cmax, Mean: spot-on with fipronil 10 mg.kg^−1, dogs, mean of 3; for t½, Mean: harmonic mean
Description: This study was undertaken in order to assess the linearity of the percutaneous passage of ivermectin after spot-on application of different doses of ivermectin (100, 250, 500 and 1000 μg.kg^−1) in combination with fipronil (10 mg.kg^−1) to the dog. Furthermore, the possibility of control both heartworms and gastro-intestinal nematodes was evaluated.
Twelve male Beagle dogs (allocated into 4 groups of 3 animals were applied spot-on formulations combining ivermectin (0.1%, 0.25%, 0.5% and 1%) and fipronil (10%) at a dose rate of 0.1 ml.kg^−1 (i.e. 100, 250, 500 and 1000 μg.kg^−1 of ivermectin and 10 mg.kg^−1 of fipronil).
The formulations are as follows: […]
The formulations were applied at one spot onto the skin between the shoulder blades.
Blood samples were collected at intervals up to 56 days post treatment.
The determination of ivermectin was carried out by HPLC after an automated solid/liquid extraction, using fluorescence detection, with limit of quantification of 100 pg.ml^−1. The determination of fipronil and its sulfone metabolite (RM1602) was carried out by HPLC with UV detection, with a limit of quantification of 20 ng.ml^−1 for fipronil and RM1602. Both methods were validated in terms of specificity, extraction recovery, linearity, precision and accuracy.

[2] = Plasma kinetics of ivermectin after subcutaneous injection of Ivomec to dogs; format: in vivo, dog; settings: for Plasma concentrations of ivermectin / Plasma concentrations of ivermectin, Mean: Ivomec subcutaneous 400 μg.kg^−1, dogs
Description: This study was conducted in order to assess the pharmacokinetics of ivemectin in the dog after subcutaneous administration of Ivomec® at a dose of 400 μg.kg^−1 of ivermectin which is known to be effective on gastrointestinal nematodes and to have a route of reference for further development.
Five male Beagle dogs were injected a subcutaneous dose of 400 μg.kg^−1 of ivermectin. Blood samples were collected at intervals up to 56 days post-dosing. The determination of ivermectin in dog plasma was carried out by HPLC, using fluorescence detection after derivatization. The limit of quantification was 100 pg.ml^−1.

heartworms = settings: Cardomec oral, 6 μg.kg^−1 of ivermectin, dog; known; cited from earlier work
[3] = Plasma kinetics of ivermectin after spot-on application 250 μg.kg^−1 in combination with fipronil to cats; format: in vivo, cat; settings: spot-on 0.25% ivermectin + 10% fipronil, 5 cats
Description: This study was undertaken in order to assess the pharmacokinetic behaviour of ivermectin after a topical (spot-on) application of a formulation containing 0.25% of ivermectin and 10% of fipronil to the cat. The formulation was as follows: […]
Five male european cats were treed with the spot-on formulation at a dose of 0.1 ml.kg^−1 (i.e. 250 μg.kg^−1 of ivermectin and 10 mg.kg^−1 of fipronil).
Blood samples were collected at intervals up to 42 days post-treatment.
The determination of ivermectin in cat plasma was carried out by a validated HPLC method using fluorescence detection, with a limit of quantification of 100 pg.ml^−1.

[4] = ivermectin, cited from earlier work
[5] = spot-on with fipronil, dogs, Group I 100 μg.kg^−1 ivermectin
[6] = spot-on with fipronil, dogs, Group I 100 μg.kg^−1 ivermectin, range over dogs
[7] = spot-on with fipronil, dogs, Group II 250 μg.kg^−1 ivermectin
[8] = spot-on with fipronil, dogs, Group II 250 μg.kg^−1 ivermectin, range over dogs
[9] = spot-on with fipronil, dogs, Group III 500 μg.kg^−1 ivermectin
[10] = spot-on with fipronil, dogs, Group III 500 μg.kg^−1 ivermectin, range over dogs
[11] = spot-on with fipronil, dogs, Group IV 1000 μg.kg^−1 ivermectin
[12] = spot-on with fipronil, dogs, Group IV 1000 μg.kg^−1 ivermectin, range over dogs
[13] = Ivomec subcutaneous 400 μg.kg^−1, 5 dogs, mean
[14] = Ivomec subcutaneous, dose 400 pg.kg^−1 [sic], individual dogs

**Q.** What does the source list for ivermectin?
**A.** difference in parameters of absorption (Cmax and AUC) between the two studies ([1]; Example 7 versus Example 6, 250 μg.kg^−1 ivermectin spot-on, dogs): > 2 fold; plasma concentrations of ivermectin compared with Example 6 ([1]; same formulation (0.25% ivermectin, 10% fipronil), same dose 250 μg.kg^−1, dogs): much lower; Cmax, Mean ([1]; Group I 100 μg.kg^−1 ivermectin): 0.136 ng/mL; Cmax, Mean ([1]; Group II 250 μg.kg^−1 ivermectin): 0.508 ng/mL; Cmax, Mean ([1]; Group III 500 μg.kg^−1 ivermectin): 1.064 ng/mL; Cmax, Mean ([1]; Group IV 1000 μg.kg^−1 ivermectin): 1.802 ng/mL; AUC (0-Clast), Mean [1, 5]: 382 pg·days/mL; Tlast, Mean [1, 5]: 7 days; tmax, Mean [1, 5]: 7 days; AUC (0-Clast), Range [1, 6]: [0-775] pg.d.ml^−1; Cmax, Range [1, 6]: [0-235] pg.ml^−1; Tlast, Range [1, 6]: [5-9] d; tmax, Range [1, 6]: [5-9] d; t½, Mean [1, 7]: 9.8 (#) d; AUC (0-Clast), Mean [1, 7]: 7808 pg·days/mL; Tlast, Mean [1, 7]: 28 days; tmax, Mean ([1]; spot-on with fipronil, dogs, Group II 250 μg.kg^−1 ivermectin, aberant value of 21 days not taken into account): 4.5* d; AUC (0-Clast), Range [1, 8]: [4949-10019] pg.d.ml^−1; Cmax, Range [1, 8]: [250-723] pg.ml^−1; tmax, Range [1, 8]: [4-5] d; t½, Range [1, 8]: [6.4-35.0] d; t½, Mean [1, 9]: 11.4 (#) d; AUC (0-Clast), Mean [1, 9]: 17200 pg·days/mL; Tlast, Mean [1, 9]: 37 days; tmax, Mean [1, 9]: 5.7 days; AUC (0-Clast), Range [1, 10]: [9088-23274] pg.d.ml^−1; Cmax, Range [1, 10]: [410-572] pg.ml^−1; tmax, Range [1, 10]: [3-7] d; t½, Range [1, 10]: [9.0-16.5] d; t½, Mean [1, 11]: 10.2 (#) d; AUC (0-Clast), Mean [1, 11]: 29711 pg·days/mL; Tlast, Mean [1, 11]: 40 days; tmax, Mean [1, 11]: 3.3 days; AUC (0-Clast), Range [1, 12]: [16759-39734] pg.d.ml^−1; Cmax, Range [1, 12]: [1669-1966] pg.ml^−1; tmax, Range [1, 12]: [2-5] d; t½, Range [1, 12]: [7.6-12.2] d; mean AUC(0-Clast) ([1]; spot-on with fipronil, dogs, dose of 250 μg.kg^−1): 7808 pg·days/mL; AUC(0-t), Mean [2, 13]: 226900 pg·days/mL; AUC(0-∞), Mean [2, 13]: 227897 pg·days/mL; Cmax, Mean [2, 13]: 28.935 ng/mL and ~30 ng/mL; Plasma concentrations of ivermectin ([2]; 0, individual dogs): BLQ (The limit of quantification was 100 pg.ml^−1); Plasma concentrations of ivermectin, Mean ([2]; 0, mean of 5 dogs): BLQ (The limit of quantification was 100 pg.ml^−1); Plasma concentrations of ivermectin ([2]; 0.25 h, individual dogs): 275 pg.ml^−1 and BLQ (The limit of quantification was 100 pg.ml^−1) (2×) and 158 pg.ml^−1 and 1123 pg.ml^−1; Plasma concentrations of ivermectin, Mean ([2]; 0.25 h, mean of 5 dogs (BLQ taken as 0)): 0.311 ng/mL; Plasma concentrations of ivermectin ([2]; 0.5 h, individual dogs): 531 pg.ml^−1 and BLQ (The limit of quantification was 100 pg.ml^−1) (2×) and 183 pg.ml^−1 and 1757 pg.ml^−1; Plasma concentrations of ivermectin, Mean ([2]; 0.5 h, mean of 5 dogs (BLQ taken as 0)): 0.494 ng/mL; Plasma concentrations of ivermectin ([2]; 1 h, individual dogs): 952 pg.ml^−1 and BLQ (The limit of quantification was 100 pg.ml^−1) and 272 pg.ml^−1 and 1487 pg.ml^−1 and 257 pg.ml^−1; Plasma concentrations of ivermectin, Mean ([2]; 1 h, mean of 5 dogs (BLQ taken as 0)): 0.594 ng/mL; Plasma concentrations of ivermectin ([2]; 4 h, individual dogs): 3148 pg/mL and 935 pg/mL and 2519 pg/mL and 2788 pg/mL and 1621 pg/mL; Plasma concentrations of ivermectin, Mean ([2]; 4 h, mean of 5 dogs): 2.202 ng/mL; Plasma concentrations of ivermectin ([2]; 10 h, individual dogs): 9438 pg/mL and 2799 pg/mL and 7471 pg/mL and 6881 pg/mL and 2322 pg/mL; Plasma concentrations of ivermectin, Mean ([2]; 10 h, mean of 5 dogs): 5.782 ng/mL; Plasma concentrations of ivermectin ([2]; 24 h, individual dogs): 19192 pg/mL and 9322 pg/mL and 25996 pg/mL and 13986 pg/mL and 7730 pg/mL; Plasma concentrations of ivermectin, Mean ([2]; 24 h, mean of 5 dogs): 15.245 ng/mL; Plasma concentrations of ivermectin ([2]; 32 h, individual dogs): 21779 pg/mL and 11651 pg/mL and 28569 pg/mL and 18632 pg/mL and 11810 pg/mL; Plasma concentrations of ivermectin, Mean ([2]; 32 h, mean of 5 dogs): 18.488 ng/mL; Plasma concentrations of ivermectin ([2]; 48 h, individual dogs): 26256 pg/mL and 18359 pg/mL and 33716 pg/mL and 27200 pg/mL and 21450 pg/mL; Plasma concentrations of ivermectin, Mean ([2]; 48 h, mean of 5 dogs): 25.396 ng/mL; Plasma concentrations of ivermectin ([2]; 56 h, individual dogs): 23243 pg/mL and 18913 pg/mL and 33887 pg/mL and 20868 pg/mL and 22925 pg/mL; Plasma concentrations of ivermectin, Mean ([2]; 56 h, mean of 5 dogs): 23.967 ng/mL; Plasma concentrations of ivermectin ([2]; D 3, individual dogs): 23145 pg/mL and 23181 pg/mL and 38453 pg/mL and 22367 pg/mL and 25089 pg/mL; Plasma concentrations of ivermectin, Mean ([2]; D 3, mean of 5 dogs): 26.447 ng/mL; Plasma concentrations of ivermectin ([2]; D 4, individual dogs): 19498 pg/mL and 24875 pg/mL and 41257 pg/mL and 22550 pg/mL and 24955 pg/mL; Plasma concentrations of ivermectin, Mean ([2]; D 4, mean of 5 dogs): 26.627 ng/mL; Plasma concentrations of ivermectin ([2]; D 5, individual dogs): 13068 pg/mL and 21883 pg/mL and 28398 pg/mL and 21501 pg/mL and 21333 pg/mL; Plasma concentrations of ivermectin, Mean ([2]; D 5, mean of 5 dogs): 21.237 ng/mL; Plasma concentrations of ivermectin ([2]; D 7, individual dogs): 10892 pg/mL and 17800 pg/mL and 21415 pg/mL and 15434 pg/mL and 15695 pg/mL; Plasma concentrations of ivermectin, Mean ([2]; D 7, mean of 5 dogs): 16.247 ng/mL; Plasma concentrations of ivermectin ([2]; D 9, individual dogs): 5662 pg/mL and 12098 pg/mL and 11892 pg/mL and 10889 pg/mL and 12769 pg/mL; Plasma concentrations of ivermectin, Mean ([2]; D 9, mean of 5 dogs): 10.662 ng/mL; Plasma concentrations of ivermectin ([2]; D 14, individual dogs): 1924 pg/mL and 5269 pg/mL and 4248 pg/mL and 5752 pg/mL and 6285 pg/mL; Plasma concentrations of ivermectin, Mean ([2]; D 14, mean of 5 dogs): 4.696 ng/mL; Plasma concentrations of ivermectin ([2]; D 21, individual dogs): 162 pg/mL and 1034 pg/mL and 625 pg/mL and 746 pg/mL and 903 pg/mL; Plasma concentrations of ivermectin, Mean ([2]; D 21, mean of 5 dogs): 0.694 ng/mL; Plasma concentrations of ivermectin ([2]; D 28, individual dogs): BLQ (The limit of quantification was 100 pg.ml^−1) (2×) and 190 pg.ml^−1 and 108 pg.ml^−1 and 119 pg.ml^−1; Plasma concentrations of ivermectin, Mean ([2]; D 28, mean of 5 dogs (BLQ taken as 0)): BLQ (The limit of quantification was 100 pg.ml^−1); Plasma concentrations of ivermectin ([2]; D 35, individual dogs): BLQ (The limit of quantification was 100 pg.ml^−1); Plasma concentrations of ivermectin, Mean ([2]; D 35, mean of 5 dogs): BLQ (The limit of quantification was 100 pg.ml^−1); tmax ([2]; Ivomec subcutaneous, 400 μg.kg^−1, individual dogs): 2 d (2×) and 4 d (2×) and 3 d; AUC(0-t) [2, 14]: 161141 pg·days/mL and 224572 pg·days/mL and 291636 pg·days/mL and 225830 pg·days/mL and 231319 pg·days/mL; AUC(0-∞) [2, 14]: 161690 pg·days/mL and 225452 pg·days/mL and 294236 pg·days/mL and 226283 pg·days/mL and 231824 pg·days/mL; Cmax [2, 14]: 26.256 ng/mL and 24.875 ng/mL and 41.257 ng/mL and 27.2 ng/mL and 25.089 ng/mL; t½ [2, 14]: 56.4 h and 77 h and 69.1 h and 69.8 h and 70.6 h; effective on heartworms (heartworms): 100%; t1/2 β, Mean ([3]; 250 μg.kg^−1 ivermectin, harmonic mean): 9.1 d and 9.07* d; AUC (0-Clast), Mean ([3]; 250 μg.kg^−1 ivermectin, mean): 23441 pg·days/mL; AUC(0-∞), Mean ([3]; 250 μg.kg^−1 ivermectin, mean): 26546 pg·days/mL; Tlast, Mean ([3]; 250 μg.kg^−1 ivermectin, mean): 35 days; tmax, Mean ([3]; 250 μg.kg^−1 ivermectin, mean): 134 h; AUC(0-∞), Range ([3]; 250 μg.kg^−1 ivermectin, range over cats): [14199-52232] pg.d.ml^−1; Cmax, Mean ([3]; 0.1 ml.kg^−1 (250 μg.kg^−1 ivermectin), mean): 1.465 ng/mL; tmax, literature data ([4]; food state of dogs not specified): 2 to 4 h; AUC, mean literature values [4]: 107.318 ng·h/mL; Cmax, mean literature values [4]: more than 2000 pg. ml^−1
